The values below are quoted from earlier work in US7713550B2, “Controlled release sodium valproate formulation” (Andrx Corporation, priority 2004, dated 2010).

The conditions of the data set: for valproic acid.

In the case of `CCCC(CCC)C(=O)O` [divalproex sodium], the solubility is 1270 µg/mL.

What is called solubility is how much of the substance goes into solution per volume.
